The text below walks through data of patent US9056923B2, “Mimetic peptides derived from collagen type IV and their use for treating angiogenesis- and lymphagiogenesis-dependent diseases” (THE JOHNS HOPKINS UNIVERSITY, priority 2010, dated 2015).

Assay [1] deals with HUVEC. As to the kind of experiment: HUVEC tube formation assay on Matrigel. The class given is cell-based, human. An outline of the steps:
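HUVEC (15,000/well) plated on polymerized Matrigel in complete media with or without peptide for 19 h at 37 °C. Tube networks imaged by microscopy, one random field per well, in triplicate wells across at least two independent experiments.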

A further assay deals with MDA-MB-231 tumors. The assay is described as follows: MRI of tumor vascular volume and permeability surface-area product. The class given is in vivo, mice. The note with it: vs control. On the procedure:
MRI of vascular volume and permeability surface-area product (PSP) were determined as follows. Mice with volume-matched tumors were treated with SP2024 or vehicle and imaged 24 h post treatment. The mice were anesthetized and the tail vein was catheterized before placing the animal in the spectrometer. All imaging studies were performed on a 4.7 T Bruker Avance spectrometer, as previously described (Raman et al., 2006; Bhujwalla et al., 2001) using a home-built solenoid coil placed around the tumor. Briefly, multislice relaxation rate (1/T1) maps were obtained by a saturation recovery method combined with fast T1 SNAPSHOT-FLASH imaging (flip angle of 10°, echo time of 2 ms). […] The detectable areas of vascular volume and permeability as well as absolute values of vascular volume and permeability were analyzed. […] Volume fractions of the regions were determined using the histogram analysis of the volume data. […] Statistical significance (p<0.05) within each experiment using the independent replicates was assessed using standard statistical assessments such as Student's t-test and ANOVA accompanied by Dunnett's test if different sets of data were compared to one group.

For assay [2], the system named is MDA-MB-231 breast cancer cells. As to the kind of experiment: MDA-MB-231 wound healing type migration assay (Oris Pro). The class given is cell-based. On the procedure: Breast cancer cells MDA-MB-231 are not suitable for the RT-CIM type experiments due to their thin elongated phenotype, thus the inhibition of migration was investigated using a wound healing type assay. This assay was performed using the Oris Pro Migration assay (Platypus Technologies, CMA 1.101). Briefly, 20,000-25,000 cells/well in full media were added to the 96 well plate containing stoppers to block migration of cells to the center region of the wells. Cells were allowed to adhere for 4 hours, after which the stoppers were removed. Cells were washed one time with PBS and fully supplemented media, with or without compound, was added to the wells. […], cells were stained with calcein AM (0.5 μg/mL) (Invitrogen, CA) and the cells that migrated to the center of the well were quantified by fluorescence intensity measured using a Victor V plate reader (Perkin Elmer) and also imaged using a Leica or Nikon microscope.

For assay [3], the system named is lymphatic endothelial cells (LEC). The assay is described as follows: LEC adhesion assay. The class given is cell-based. On the procedure: (§1) Similar to the migration assays, the inhibition activity of the peptide in cellular adhesion was assessed using the RT-CIM technology. In this case, 25,000 cells/well were plated in 16 wells E-plates (Roche, Basel Switzerland) in the presence or absence of the peptide. The adhesion was monitored over time (3 hours) by measuring changes in the electrical impedance, which is a direct measure of the cells adhering on the electrodes. […] Assays were performed in at least two independent replicates and each replicate was performed using two experimental duplicates.

Assay [4] has the same test system. As to the kind of experiment: LEC migration assay. The class given is cell-based. On the procedure: The inhibitory potential of the peptides was measured using a real time migration assay system based on electrical impedance (RT-CIM, ACEA Biosciences, CA). CIM 16 well plates (Roche, 05665817001) are composed of a top and bottom chamber separated by a microporous (8 μm) polycarbonate membrane. The membrane was coated with fibronectin (20 μg/mL), and 45,000 cells/well in serum free media with or without peptides were added to the top compartment. Media with chemoattractant (i.e., fully supplemented EBM-2) was added to the bottom compartment of the chamber and the plate was incubated at 37° C. for 20 hours. The sensors integrated on the bottom side of the membrane monitor and continuously record changes in impedance as the cells move through the membrane. The RT-CIM technology allows for easy quantification of cell migration by monitoring the cell index derived from the measured impedances. Assays were performed in at least two independent replicates and each replicate was performed using two experimental duplicates.

The test system of assay [5] is HUVEC. As to the kind of experiment: HUVEC migration assay (RT-CIM). The class given is cell-based, human. The gist of the method: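 Real-time impedance (RT-CIM) transwell migration through fibronectin-coated (20 μg/mL) 8 μm membranes; 45,000 cells/well in serum-free medium ± peptides, fully supplemented EBM-2 as chemoattractant below. Cell index recorded over 20 h at 37 °C; ≥2 independent replicates, each in duplicate.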

Assay [6] has as its system MDA-MB-231 breast cancer cells. As to the kind of experiment: MDA-MB-231 adhesion assay. The class given is cell-based. On the procedure: as §1

“Also recorded” adds a separate entry of the source. Ends that are not written are not given here.

Turning to LRRFSTMPFMFININNVINF-NH2 [SP2024], in the assay on HUVEC [1] (100 uM peptide), the “Tube formation Inhibition (100 uM)” value was “Complete”. In addition, the “Activity in Tube formation” value in the assay on HUVEC [1] (Yes/No summary) was “Yes”. In the assay on MDA-MB-231 tumors, the relative vascular volume result is reported as “reduced relative vascular volume” and the “tumor permeability-surface area product” value is “reduced tumor permeability-surface area product”. Further, in assay [2], the “inhibition of migration of MDA-MB-231 cells” value was “strong; also recorded: inhibition of cell migration”. For the same substance, the “inhibition of adhesion of LEC” value in assay [3] is recorded as “strong”. Also, the “inhibition of migration of LEC” value in assay [4] is “strong”. Moreover, the “Migration Inhibition (5 uM)” value in the assay on HUVEC [5] (5 uM peptide) is given as 37.73%. In addition, the “Activity in Migration” value in the assay on HUVEC [5] (Yes/No summary, active = inhibitory potential greater than 30%) is “Yes”. The “inhibition of adhesion of MDA-MB-231 cells” value in assay [6] is “strong; also recorded: inhibition of cell adhesion”.
